Laboratory results taken from patent US20160282364A1, “ASSAY FOR INSULIN-DEGRADING ENZYME (IDE) INHIBITORS” (PRESIDENT AND FELLOWS OF HARVARD COLLEGE, priority 2013, published 2016).

Assay: Tissue distribution by stable isotope dilution LC-MS
Type: in vivo, mouse
Settings: mice, 80 mg/kg i.p.
Procedure: Stable isotope dilution LC-MS, pharmacokinetics, and tissue distribution measurements. […] Tissue samples ( 100 mg) fromb 6K-treated mice and vehicle controls were weighed and disrupted in Dounce homogenizers with PBS buffer (0.5 mL/100 mg sample), supplemented with 5 μM heavy-6bK and protease inhibitor cocktail (1 tablet/50 mL PBS, Roche diagnostics). The lysate was incubated on ice for 30 min, sonicated 5 min and centrifuged at 13,000 g for 5 min. The bulk of supernatant proteins were precipitated by denaturation at 95° C. for 5 min, removed by centrifugation.

NCCCC[C@@H]1NC(=O)/C=C/C(=O)N[C@H](C(N)=O)CCCCNC(=O)[C@@H](Cc2ccc(C(=O)c3ccccc3)cc2)NC(=O)[C@H](CC2CCCCC2)NC1=O [Compound 6bK]
biodistribution into plasma, liver, kidney, and pancreatic tissues: prompt biodistribution
detection in the brain (10-fold concentrated samples): did not detect
